Structures can show the parent of a compound that is named as a salt. Bounds are passed on as bounds.

Assay [1] deals with A431 cells (human epidermoid carcinoma). The assay is described as follows: In vitro tumor cell proliferation assay (Cell Titer-Glo luminescent cell viability), A431. It counts as cell-based. The following applies: A-431, 72 h, 72 hours of drug exposure, ATP luminescence readout, read-out: IC50, anti-proliferative activity (inhibition of cell proliferation). In a few lines:
(§1)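 Seeding density 2.5×10^3 cells/well; 72 h drug exposure at 37° C; endpoint CellTiter-Glo luminescence, reported as IC50.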

Assay [2] relates to BT474 (human breast carcinoma). The assay is described as follows: In vitro tumor cell proliferation assay (Cell Titer-Glo luminescent cell viability), BT474. The following applies: BT-474, 72 h, BT474 cells, 72 hours of drug exposure, ATP luminescence readout, read-out: IC50, anti-proliferative activity (inhibition of cell proliferation). The format is cell-based. The method in brief:
as §1

Consider `OCCNCCn1ncc2c1CCc1c-2sc2ncnc(Nc3ccc(OCc4cccc(F)c4)c(Cl)c3)c12` [Example 264, 2-({2-[6-({3-chloro-4-[(3-fluorobenzyl)oxy]phenyl}amino)-4,5-dihydro-3H-pyrimido[5′,4′:4,5]thieno[2,3-e]indazol-3-yl]ethyl}amino)ethanol], for which the results for the IC50 in assay [1] and in assay [2] were no more than 50 µM and no more than 1 µM, respectively.
With `Fc1cccc(COc2ccc(Nc3ncnc4sc5c(c34)CCc3c-5cnn3CCN3CCN(Cc4ccncc4)CC3)cc2Cl)c1` [Example 263, N-{3-chloro-4-[(3-fluorobenzyl)oxy]phenyl}-3-{2-[4-(pyridin-4-ylmethyl)piperazin-1-yl]ethyl}-4,5-dihydro-3H-pyrimido[5′,4′:4,5]thieno[2,3-e]indazol-6-amine], the IC50 in assay [1] was no more than 50 µM; in assay [2] it was no more than 1 µM.
For the compound `O=C(Cn1ncc2c1CCc1c-2sc2ncnc(Nc3ccc(OCc4cccc(F)c4)c(Cl)c3)c12)NCCO` [Example 209, 2-[6-({3-chloro-4-[(3-fluorobenzyl)oxy]phenyl}amino)-4,5-dihydro-3H-pyrimido[5′,4′:4,5]thieno[2,3-e]indazol-3-yl]-N-(2-hydroxyethyl]acetamide], the values for the IC50 in assay [1] and in assay [2] were no more than 50 µM and no more than 1 µM, respectively.
In the case of `COCCN(CCOC)CCn1ncc2c1CCc1c-2sc2ncnc(Nc3ccc4c(cnn4Cc4cccc(F)c4)c3)c12` [Example 292, 3-{2-[bis(2-methoxyethyl)amino]ethyl}-N-[1-(3-fluorobenzyl)-1H-indazol-5-yl]-4,5-dihydro-3H-pyrimido[5′,4′:4,5]thieno[2,3-e]indazol-6-amine], the IC50 is no more than 5 µM in assay [1] and no more than 1 µM in assay [2].
Take `COCCNCCn1ncc2c1CCc1c-2sc2ncnc(Nc3ccc(OCc4cccc(F)c4)c(Cl)c3)c12` [Example 84, N-{3-chloro-4-[(3-fluorobenzyl)oxy]phenyl}-3-{2-[(2-methoxyethyl)amino]ethyl}-4,5-dihydro-3H-pyrimido[5′,4′:4,5]thieno[2,3-e]indazol-6-amine]: the IC50 in assay [1] is no more than 5 µM; in assay [2], no more than 1 µM.
Turning to `CNC(=O)Cn1cc2c(n1)CCc1c-2sc2ncnc(Nc3ccc(OCc4cccc(F)c4)c(Cl)c3)c12` [Example 188, 2-[6-({3-chloro-4-[(3-fluorobenzyl)oxy]phenyl}amino)-4,5-dihydro-2H-pyrimido[5′,4′:4,5]thieno[2,3-e]indazol-2-yl]-N-methylacetamide], the results for the IC50 in assay [1] and in assay [2] were no more than 50 µM and no more than 1 µM, respectively.
In the same order, the values of `OC[C@H](O)Cn1cc2c(n1)CCc1c-2sc2ncnc(Nc3ccc(OCc4cccc(F)c4)c(Cl)c3)c12` [Example 76, (R)-3-{6-[3-Chloro-4-(3-fluoro-benzyloxy)-phenylamino]-4,5-dihydro-10-thia-2,3,7,9-tetraaza-cyclopenta[a]fluoren-2-yl}-propane-1,2-diol] are no more than 5 µM and no more than 1 µM.
On the same counts, the results for `CN1CCN(CCn2cc3c(n2)CCc2c-3sc3ncnc(Nc4ccc5c(cnn5Cc5ccccn5)c4)c23)CC1` [Example 338, 2-[2-(4-methylpiperazin-1-yl)ethyl]-N-[1-(pyridin-2-ylmethyl)-1H-indazol-5-yl]-4,5-dihydro-2H-pyrimido[5′,4′:4,5]thieno[2,3-e]indazol-6-amine] are no more than 50 µM and no more than 1 µM.
Regarding `CC(C)(C)OC(=O)N1CCN(CCn2cc3c(n2)CCc2c-3sc3ncnc(Nc4ccc(F)c(Cl)c4)c23)CC1` [Example 27, tert-butyl 4-(2-{6-[(3-chloro-4-fluorophenyl)amino]-4,5-dihydro-2H-pyrimido[5′,4′:4,5]thieno[2,3-e]indazol-2-yl}ethyl)piperazine-1-carboxylate], the IC50 in assay [1] and in assay [2] was no more than 5 µM throughout.
Regarding `COCCN(C)CCn1cc2c(n1)CCc1c-2sc2ncnc(Nc3ccc(OCc4cccc(F)c4)c(Cl)c3)c12` [Example 69, N-{3-chloro-4-[(3-fluorobenzyl)oxy]phenyl}-2-{2-[(2-methoxyethyl)(methyl)amino]ethyl}-4,5-dihydro-2H-pyrimido[5′,4′:4,5]thieno[2,3-e]indazol-6-amine], the IC50 is no more than 5 µM in assay [1] and no more than 1 µM in assay [2].
Regarding `CC(C)CN1CCC(CCn2cc3c(n2)CCc2c-3sc3ncnc(Nc4ccc(OCc5cccc(F)c5)c(Cl)c4)c23)CC1` [Example 251, N-{3-chloro-4-[(3-fluorobenzyl)oxy]phenyl}-2-[2-(1-isobutylpiperidin-4-yl)ethyl]-4,5-dihydro-2H-pyrimido[5′,4′:4,5]thieno[2,3-e]indazol-6-amine], the results for the IC50 in assay [1] and in assay [2] were no more than 5 µM and no more than 1 µM, respectively.
On the same counts, the results for `CN(C)C1CCN(C(=O)Cn2ncc3c2CCc2c-3sc3ncnc(Nc4ccc(OCc5cccc(F)c5)c(Cl)c4)c23)C1` (stereo not drawn) [Example 215, N-{3-chloro-4-[(3-fluorobenzyl)oxy]phenyl}-3-{2-[3-(dimethylamino)pyrrolidin-1-yl]-2-oxoethyl}-4,5-dihydro-3H-pyrimido[5′,4′:4,5]thieno[2,3-e]indazol-6-amine] are no more than 5 µM and no more than 1 µM.
As to `CN1CCN(CCn2cc3c(n2)CCc2c-3sc3ncnc(Nc4ccc(OCc5cccc(F)c5)c(Cl)c4)c23)CC1` [Example 62, N-{3-chloro-4-[(3-fluorobenzyl)oxy]phenyl}-2-[2-(4-methylpiperazin-1-yl)ethyl]-4,5-dihydro-2H-pyrimido[5′,4′:4,5]thieno[2,3-e]indazol-6-amine], the figures for the IC50 in assay [1] and in assay [2] were no more than 5 µM and no more than 1 µM, respectively.
For `Fc1cccc(Cn2ncc3cc(Nc4ncnc5sc6c(c45)CCc4n[nH]cc4-6)ccc32)c1` [Example 288, N-[1-(3-fluorobenzyl)-1H-indazol-5-yl]-4,5-dihydro-2H-pyrimido[5′,4′:4,5]thieno[2,3-e]indazol-6-amine], the IC50 was no more than 5 µM in assay [1] and no more than 1 µM in assay [2].
As for `CN1CCN(CCn2cc3c(n2)CCc2c-3sc3ncnc(Nc4ccc(Cl)c(Cl)c4)c23)CC1` [Example 45, N-(3,4-dichlorophenyl)-2-[2-(4-methylpiperazin-1-yl)ethyl]-4,5-dihydro-2H-pyrimido[5′,4′:4,5]thieno[2,3-e]indazol-6-amine], the IC50 is no more than 5 µM in assay [1] and no more than 1 µM in assay [2].
Consider `COCCNCCn1cc2c(n1)CCc1c-2sc2ncnc(Nc3ccc(OCc4ccccn4)c(Cl)c3)c12` [Example 103, N-[3-chloro-4-(pyridin-2-ylmethoxy)phenyl]-2-{2-[(2-methoxyethyl)amino]ethyl}-4,5-dihydro-2H-pyrimido[5′,4′:4,5]thieno[2,3-e]indazol-6-amine], for which the values for the IC50 in assay [1] and in assay [2] were no more than 50 µM and no more than 1 µM, respectively.
On the same counts, the results for `CCN1CCC(CCn2cc3c(n2)CCc2c-3sc3ncnc(Nc4ccc(OCc5cccc(F)c5)c(Cl)c4)c23)CC1` [Example 254, N-{3-chloro-4-[(3-fluorobenzyl)oxy]phenyl}-2-[2-(1-ethylpiperidin-4-yl)ethyl]-4,5-dihydro-2H-pyrimido[5′,4′:4,5]thieno[2,3-e]indazol-6-amine] are no more than 5 µM and no more than 1 µM.
As for `Clc1cc(Nc2ncnc3sc4c(c23)CCc2nn(CCn3ccnc3)cc2-4)ccc1OCc1ccccn1` [Example 104, N-[3-chloro-4-(pyridin-2-ylmethoxy)phenyl]-2-[2-(1H-imidazol-1-yl)ethyl]-4,5-dihydro-2H-pyrimido[5′,4′:4,5]thieno[2,3-e]indazol-6-amine], the IC50 was no more than 50 µM in assay [1] and no more than 1 µM in assay [2].
On the same counts, the results for `Fc1cccc(COc2ccc(Nc3ncnc4sc5c(c34)CCc3nn(C4CCNCC4)cc3-5)cc2Cl)c1` [Example 217, N-{3-chloro-4-[(3-fluorobenzyl)oxy]phenyl}-2-piperidin-4-yl-4,5-dihydro-2H-pyrimido[5′,4′:4,5]thieno[2,3-e]indazol-6-amine] are no more than 5 µM and no more than 1 µM.
On the same counts, the results for `Fc1cccc(COc2ccc(Nc3ncnc4sc5c(c34)CCc3c-5cnn3CCN3CCCCC3)cc2Cl)c1` [Example 266, trifluoroacetate] are no more than 5 µM and no more than 1 µM.
In the case of `CN1CCN(CCn2cc3c(n2)CCc2c-3sc3ncnc(Nc4ccc(OCc5ccc(Cl)cc5)c(Cl)c4)c23)CC1` [Example 331, N-{3-chloro-4-[(4-chlorobenzyl)oxy]phenyl}-2-[2-(4-methylpiperazin-1-yl)ethyl]-4,5-dihydro-2H-pyrimido[5′,4′:4,5]thieno[2,3-e]indazol-6-amine], the IC50 in assay [1] was no more than 5 µM; in assay [2] it was no more than 1 µM.
In the same order, the values of `Fc1cccc(COc2ccc(Nc3ncnc4sc5c(c34)CCc3c-5cnn3CCNCCN3CCOCC3)cc2Cl)c1` [Example 259, N-{3-chloro-4-[(3-fluorobenzyl)oxy]phenyl}-3-{2-[(2-morpholin-4-ylethyl)amino]ethyl}-4,5-dihydro-3H-pyrimido[5′,4′:4,5]thieno[2,3-e]indazol-6-amine] are no more than 50 µM and no more than 5 µM.
As to `Cc1cccc(COc2ccc(Nc3ncnc4sc5c(c34)CCc3n[nH]cc3-5)cc2Cl)n1` [Example 120, N-{3-chloro-4-[(6-methylpyridin-2-yl)methoxy]phenyl}-4,5-dihydro-2H-pyrimido[5′,4′:4,5]thieno[2,3-e]indazol-6-amine], the IC50 in assay [1] and in assay [2] was no more than 5 µM in each case.
As to `CCN1CCC(n2cc3c(n2)CCc2c-3sc3ncnc(Nc4ccc(OCc5cccc(F)c5)c(Cl)c4)c23)CC1` [Example 230, N-{3-chloro-4-[(3-fluorobenzyl)oxy]phenyl}-2-(1-ethylpiperidin-4-yl)-4,5-dihydro-2H-pyrimido[5′,4′:4,5]thieno[2,3-e]indazol-6-amine], the IC50 in assay [1] was no more than 5 µM; in assay [2], no more than 1 µM.

The values are drawn from patent publication US8207172B2 (Bayer Intellectual Property GmbH, priority 2004, dated 2012).
